Legend:
[1] = Selectivity index, ratio of CC50 for human Huh7.5 cells to EC50 for Hepatitis C virus infected in human Huh7.5 cells; type: toxicity, cell-based; settings: read-out: Ratio CC50/EC50
[2] = test system: Hepatitis C virus; assay: Antiviral activity against Hepatitis C virus infected in human Huh7.5 cells assessed as reduction in viral RNA level after 72 hrs by RT-PCR method; type: functional, cell-based, Hepacivirus hominis; settings: Huh7.5, 72 h
[3] = Cytotoxicity against human Huh7.5 cells after 72 hrs by MTT assay; type: cell-based
[4] = Half life in Sprague-Dawley rat at 25 mg/kg, po administered as single dose; type: ADME, organism-based; settings: in vivo
[5] = Cmax in Sprague-Dawley rat at 25 mg/kg, po administered as single dose; type: ADME, organism-based; set-up: dose 25 mg/kg, route oral; settings: in vivo
[6] = AUC (0 to infinity) in Sprague-Dawley rat at 25 mg/kg, po administered as single dose; type: ADME, organism-based; set-up: dose 25 mg/kg, route oral, time infinity; settings: in vivo
[7] = Tmax in Sprague-Dawley rat at 25 mg/kg, po administered as single dose; type: ADME, organism-based; settings: in vivo
[8] = Mean residence time in Sprague-Dawley rat at 25 mg/kg, po administered as single dose; type: ADME, organism-based; settings: in vivo
[9] = Acute toxicity in Kunming mouse administered as single oral dose measured for 7 days; settings: in vivo
[10] = AUC (0 to t) in Sprague-Dawley rat at 25 mg/kg, po administered as single dose; type: ADME, organism-based; settings: in vivo

EC50 [2] | SMILES | selectivity ratio [1] | CC50 at 72 h [3] | half-life [4] | Cmax [5] | AUC(0-inf) [6] | Tmax [7] | MRT [8] | LD50 at 168 h [9] | AUC(0-t) [10]
22.7 µM | COc1ccc(CN2C[C@@H]3CCCN4CCC[C@@H]([C@H]34)[C@H]2CCCC(=O)O)cc1 | > 22 | > 500 µM | – | – | – | – | – | – | –
> 167 µM | O=C(O)C[C@@H]1[C@H]2CCCN3CCC[C@@H](CN1Cc1ccc(C(F)(F)F)cc1)[C@@H]23 | – | 244 µM | – | – | – | – | – | – | –
3.03 µM | COC(=O)C[C@@H]1[C@H]2CCCN3CCC[C@@H](CN1C(=O)c1ccc(OC)cc1)[C@@H]23 | > 165 | > 500 µM | – | – | – | – | – | – | –
4.95 µM | CCCN1C[C@@H]2CCCN3CCC[C@@H]([C@H]23)[C@H]1CCO | > 101 | > 500 µM | – | – | – | – | – | – | –
8.06 µM | CCOc1ccc(CN2C[C@@H]3CCCN4CCC[C@@H]([C@H]34)[C@H]2CC(=O)OC)cc1OC | > 62 | > 500 µM | – | – | – | – | – | – | –
47.5 µM | Cc1ccc(CN2C[C@@H]3CCCN4CCC[C@@H]([C@H]34)[C@H]2CC(=O)O)cc1 | > 10.5 | > 500 µM | – | – | – | – | – | – | –
104 µM | O=C(O)C[C@@H]1[C@H]2CCCN3CCC[C@@H](CN1Cc1ccc([N+](=O)[O-])cc1)[C@@H]23 | > 4.81 | > 500 µM | – | – | – | – | – | – | –
6.71 µM | COc1cccc(CN2C[C@@H]3CCCN4CCC[C@@H]([C@H]34)[C@H]2CCO)c1OC | 45.5 | 305 µM | – | – | – | – | – | – | –
5.18 µM | OCC[C@@H]1[C@H]2CCCN3CCC[C@@H](CN1Cc1ccc(F)cc1F)[C@@H]23 | 41.9 | 217 µM | – | – | – | – | – | – | –
21.2 µM | O=C(O)C[C@@H]1[C@H]2CCCN3CCC[C@@H](CN1Cc1ccc(Cl)c(Cl)c1)[C@@H]23 | 6.65 | 141 µM | – | – | – | – | – | – | –
7.14 µM | COC(=O)C[C@@H]1[C@H]2CCCN3CCC[C@@H](CN1Cc1ccccc1C)[C@@H]23 | 32.2 | 230 µM | – | – | – | – | – | – | –
24.6 µM | COc1ccc(C(=O)N2C[C@@H]3CCCN4CCC[C@@H]([C@H]34)[C@H]2CCCC(C)(C)O)cc1 | 14.7 | 362 µM | – | – | – | – | – | – | –
1.09 µM | COC(=O)C[C@@H]1[C@H]2CCCN3CCC[C@@H](CN1Cc1ccc(F)cc1F)[C@@H]23 | 118 | 128 µM | – | – | – | – | – | – | –
114 µM | O=C(O)C[C@@H]1[C@H]2CCCN3CCC[C@@H](CN1Cc1ccccc1)[C@@H]23 | > 4.39 | > 500 µM | – | – | – | – | – | – | –
5.36 µM | CCOc1ccc(CN2C[C@@H]3CCCN4CCC[C@@H]([C@H]34)[C@H]2CCO)cc1OC | > 93.3 | > 500 µM | – | – | – | – | – | – | –
3.5 µM | O=[N+]([O-])c1ccc(CN2C[C@@H]3CCCN4CCC[C@@H]([C@H]34)[C@H]2CCO)cc1 | 33.7 | 118 µM | – | – | – | – | – | – | –
86.4 µM | Cc1cccc(CN2C[C@@H]3CCCN4CCC[C@@H]([C@H]34)[C@H]2CC(=O)O)c1 | > 5.78 | > 500 µM | – | – | – | – | – | – | –
2.29 µM | COC(=O)C[C@@H]1[C@H]2CCCN3CCC[C@@H](CN1Cc1ccc(C)cc1)[C@@H]23 | 93.7 | 215 µM | – | – | – | – | – | – | –
2.58 µM | CCCCN1C[C@@H]2CCCN3CCC[C@@H]([C@H]23)[C@H]1CCO | > 193 | > 500 µM | – | – | – | – | – | – | –

SMILES | EC50 [2] | selectivity ratio [1] | CC50 at 72 h [3] | half-life [4] | Cmax [5] | AUC(0-inf) [6] | Tmax [7] | MRT [8] | LD50 at 168 h [9] | AUC(0-t) [10]
COc1ccc(CN2C[C@@H]3CCCN4CCC[C@@H]([C@H]34)[C@H]2CCO)cc1 | 3.2 µM | 96.6 | 309 µM | 2.08 h | 310 nM | 0.56 µM·h | 0.33 h | 1.6 h | > 250 mg/kg | 0.5 µM·h
COC(=O)C[C@@H]1[C@H]2CCCN3CCC[C@@H](CN1Cc1ccc(OC)cc1)[C@@H]23 | 7.81 µM | 50.2 | 392 µM | 6.36 h | 360 nM | 0.69 µM·h | 0.5 h | 2.25 h | > 250 mg/kg | 0.67 µM·h
COc1ccc(CN2C[C@@H]3CCCN4CCC[C@@H]([C@H]34)[C@H]2CC(=O)O)cc1 | 27.6 µM | > 18.1 | > 500 µM | 2.54 h | 4960 nM | 8.59 µM·h | 0.42 h | 2.16 h | > 500 mg/kg | 8.59 µM·h
O=C(O)C[C@@H]1[C@H]2CCCN3CCC[C@@H](CN1Cc1ccncc1)[C@@H]23 | 47.2 µM | > 10.6 | > 500 µM | – | – | – | – | – | – | –
